Counter-ions that a name gives are not always drawn. Like-named read-outs stand apart in the source and are kept apart here.
Key:
[1] = tested on: EpiDerm™ Skin Model (EPI-200); test: MatTek EpiDerm MTT Viability Assay (dermal irritancy); type: cell-based, human
Procedure: The MatTek EpiDerm™ MTT Viability Assay (MatTek Corp.) was utilized to determine the dermal irritancy and toxicology of octenidine distearate and octenidine dihydrochloride. The assay was performed using the EpiDerm™ Skin Model (EPI-200) as well as the Methyl thiazole tetrazolium (MT) Kit (MTT-100). The EpiDerm™ Skin Model closely parallels human skin, thus providing a useful in vitro method to assess dermal irritancy and toxicology.
Negative controls (treated with tissue culture water) were tested at 4 hours only. Following treatment, the viability of the tissues was determined using MTT uptake and reduction. The absorbance of each sample was measured at 540 nm using a reference wavelength of 690 nm. The viability was then expressed as a percent of Negative Control or Vehicle Control values. The mean percent viability for each time point was used to calculate and ET50, which represents the time at which the EpiDerm™ tissue viability was reduced 50%, compared to Negative Control or Vehicle Control tissues. The ET50 scores were converted to an irritancy classification.
MTT Reduction: 704 μl of mineral oil were heated at 70 C for 10 minutes.
Before use, tissues were incubated (37° C.±1 C, 5%±1% CO2) with assay medium (MatTek) for a one-hour equilibration. Equilibration medium was replaced with fresh medium before dosing.
The test articles were diluted as described in the sample preparation above. 100 μl of the test article dilution were mixed with 1 ml of MTT solution (1 mg/ml MTT diluted in Dulbecco's Modified Eagle's Medium (DMEM). A negative control (100 μl of tissue culture water) and a vehicle control (100 μl of mineral oil) were tested concurrently. The solutions were incubated at room temperature in the dark for 60 minutes. After incubation, the solutions were visually inspected for purple coloration, which is a positive indication that the test article reduced MTT. Since tissue viability is based on MTT reduction, direct reduction by a test article can exaggerate viability, making a test article seem less irritating that it really is.
100 μl of the test article dilutions were applied to the top of each EpiDerm™ tissue. The test articles remained in contact with the EpiDerm™ tissue for 1, 4 and 24 hours. Vehicle controls (TCH20 and mineral oil) for the test articles were tested at 4 hours. A positive control (1% Triton® X-100) was tested at 4 and 9 hours. […]
At the end of the selected exposure periods, each EpiDerm™ tissue was rinsed with phosphate buffered saline (PBS) and transferred to a 24-well plate containing 300 μl of MTT solution (1 mg/ml MTT in DMEM). […] An aliquot of the extracted MTT formazan was measured at 540 nm using a plate reader (pQuant Plate Reader, Bio-Tek Instruments, Winooski, Vt.), subtracting the absorbance at a reference wavelength of 690 nm.

[2] = tested on: Bacillus licheniformis (14580); test: MIC test against skin microorganisms; type: cell-based; details: 48 hrs at 36° C., two different sets
Procedure: (§1) MICs for the organisms were determined using a standard 96-well microtiter plate assay in Trypic Soy Broth (TSB). […] Bacteria were grown in Tryptic Soy Broth or Brain Heart Infusion (E. hirae) for 24 hrs and were adjusted to one million cells per milliliter in same type of broth. Following incubation (48 hrs at 36° C.), the lowest concentration of test compound inhibiting growth was recorded as the Minimum Inhibitory Concentration (MIC). The actives were serially diluted and tested at final concentrations ranging from 156.3-0.61 ppm. MIC was run for two different sets.
(§2) Bacteria were grown overnight in Tryptic Soy Brother (TSB) or Brain Heart Infusion (BHI) and were adjusted to approximately 1×10^6 colony forming units per ml (cfu/ml) and used to inoculate the wells. Final bacterial concentration in the test wells was 5×10^5 cfu/ml. For Corynebacterium spp, TSB was used for the first set and BHI for the second set. Inoculated microtiter plates were incubated at 36° C. for 48 hours.
(§3) The lowest concentration of test compound inhibiting growth was recorded as the minimum inhibitory concentration.

[3] = tested on: Corynebacterium minutissimum (23348); test: MIC test against skin microorganisms; type: cell-based; details: 48 hrs at 36° C., TSB first set, BHI second set
Procedure: as §1, §2, §3

[4] = tested on: Corynebacterium xerosis (373); test: MIC test against skin microorganisms; type: cell-based; details: 48 hrs at 36° C., TSB first set, BHI second set
Procedure: as §1, §2, §3

[5] = tested on: Staphylococcus epidermidis (12228); test: MIC test against skin microorganisms; type: cell-based; details: 48 hrs at 36° C., two different sets
Procedure: as §1, §2, §3

[6] = tested on: Staphylococcus haemolyticus (29970); test: MIC test against skin microorganisms; type: cell-based; details: 48 hrs at 36° C., two different sets
Procedure: as §1, §2, §3

[7] = tested on: mixed pool of bacteria (Staphylococcus epidermis, Corynebacterium minutissimum, Staphylococcus haemolyticus, Corynebacterium xerosis, Micrococcus luteus) on …; test: Control of growth of skin microorganisms on pig skin; type: cell-based, skin bacteria on pig skin; details: 200 ppm in ethanol, 100 μl on pig skin, mixed bacterial pool, 35° C., 8 hour time period
Procedure: To further investigate the potential of the bispyridine amine compounds of the present invention for use as antimicrobial active ingredients in personal care products and cosmetics, the efficacy of octenidine distearate in controlling growth of skin microorganisms compared to Cosmocil® S was evaluated using different skin mimics. Testing was performed using pig skin. Although alternatives, such as VITRO-SKIN®, offered a less variable test matrix, it was decided that testing on pig skin was a better model for this application, as the pig skin allowed for actual growth of bacteria on the surface, not merely the survival of bacteria on the surface, providing more representative user skin conditions. The typical skin microorganisms Staphylococcus epidermis (ATCC 12228), Corynebacterium minutissimum (ATCC 23348), Staphylococcus haemolyticus (ATCC 29970), Corynebacterium xerosis (ATCC 373), and Micrococcus luteus (ATCC 4698), were grown in Tryptic Soy Broth (TSB) at 35-37° C. for approximately 24 hours. Each bacterial suspension was diluted 1:50 in TSB and then inoculum was prepared by mixing equal volume of each bacterial suspension. The final inoculum was plated in TSA to get an accurate count and used as a mixed pool of bacteria. […] Plates were incubated at 35-37° C. for 48 hours before the colonies were counted, and the mean values calculated.

| Structure (SMILES) | ET50 ([1]; human, 1.25 % w/v) [h] | MIC (ppm) [2] | MIC (ppm) [3] | MIC (ppm) [4] [ppm] | MIC (ppm) [5] | MIC (ppm) [6] | efficacy in controlling growth of skin microorganisms (CFU/cm^2 of skin, FIG. 1) [7] | ET50 [1] [h] | ET50 (hrs) [1] | Irritancy Classification [1] |
| --- | --- | --- | --- | --- | --- | --- | --- | --- | --- | --- |
| CCCCCCCCN=c1ccn(CCCCCCCCCCn2ccc(=NCCCCCCCC)cc2)cc1 [Octenidine HCl, Octenidine dihydrochloride] | 1.1 |  |  |  |  |  |  |  |  |  |
| CCCCCCCCCCCCCCCCCC(=O)O.CCCCCCCCCCCCCCCCCC(=O)O.CCCCCCCCN=c1ccn(CCCCCCCCCCn2ccc(=NCCCCCCCC)cc2)cc1 [Octenidine distearate, octenidine distearate] |  | 9.76-19.53 ppm | 2.44-39.06 ppm | 39.06 | 4.88-9.76 ppm | 4.88-9.76 ppm | equally as effective as Cosmocil® S | >24.0 | greater than 24.0 hrs | Non-Irritating |
